Results as given in patent EP0253314B1, “Peptidase and process for producing the same” (SUNTORY LIMITED, priority 1986, dated 1988).
Non-standard residues stand in square brackets, D forms with d. Residues, ends and D or L forms follow the SMILES beside them. *: point of attachment. Sta = CC(C)C[C@H](N)[C@@H](O)CC(=O)O; Isovaleryl = CC(C)CC(=O)*

Columns and labels:
[1] = test system: peptidase of the present invention; type: biochemical, Saccharomyces cerevisiae; parameters: key to Inhibition: - indicates that the reaction was not inhibited; conditions: for Inhibition: pH 4
α-MF = α-MF produced at a level of several µg/ml; reacted for 24 hours; prior-art culture activity; cited from earlier work
[2] = test system: enzyme of the present invention; assay: Substrate specificity of enzyme (percentage of cleaved substrate by HPLC); type: biochemical, Saccharomyces cerevisiae; conditions: 24 hours at 30°C in 0.05 M acetate buffer (pH 4.0); DEAE-Sephacel fraction eluted with 0.2 M NaCl

| Compound | Response to inhibitor (inhibition of the enzyme, in words) [1] | Inhibition [1] | α-MF cleaved (α-MF) | % Cleavage [2] |
| --- | --- | --- | --- | --- |
| CC(=O)N[C@@H](CC(C)C)C(=O)N[C@@H](CC(C)C)C(=O)N[C@H](C=O)CCCNC(=N)N [Leupeptin, leupeptin] | inhibited neither | - |  |  |
| Trp - His - Trp - Leu - Gln - Leu - Lys - Pro - Gly - Gln - Pro - Met - Tyr [α-MF] |  |  | about 50% | not less than 90% |
| Ser - Leu - Arg - Arg - Ser - Ser - Cys - Phe - Gly - Gly - Arg - Met - Asp - Arg - Ile - Gly - Ala - Gln - Ser - Gly - Leu - Gly - Cys - Asn - Ser - Phe - Arg - Tyr [α-hamp] |  |  |  | 0% |
| Cys - Tyr - Ile - Gln - Asn - Cys - Pro - Leu - Gly - NH2 [oxytocin] |  |  |  | 0% |
| O=S(=O)(F)Cc1ccccc1 [PMSF, phenylmethylsulfonyl fluoride] | inhibited neither | - |  |  |
| O=C(O)CI [monoiodoacetic acid] | inhibited neither | -* |  |  |
| Cc1ccc(S(=O)(=O)N[C@@H](CCCCN)C(=O)CCl)cc1 [TLCK, tosyl - L - lysine chloromethyl ketone] | inhibited neither | - |  |  |
| O=C(O)CN(CCN(CC(=O)O)CC(=O)O)CC(=O)O [EDTA] | not inhibited | - |  |  |
| C[C@@H](O)[C@H](N)C(=O)N[C@@H](CCCCN)C(=O)N1CCC[C@H]1C(=O)N[C@@H](CCCNC(=N)N)C(=O)O [tuftsin, Thr - Lys - Pro - Arg] (H-TKPR-OH) |  |  |  | 0% |
| pGlu - Leu - Tyr - Glu - Asn - Lys - Pro - Arg - Arg - Pro - Tyr - Ile - Leu [neurotensin] |  |  |  | 0% |
| Trp - Gly - Gly - Phe - Leu - Arg - Arg - Ile - Arg - Pro - Lys - Leu - Lys - Trp - Asp - Asn - Gln [dynorphin] |  |  |  | not less than 90% |
| O=C(O)c1cc[c]([Hg][Cl])cc1 [PCMB, p-chloro-mercuribenzoic acid] | inhibited neither | - |  |  |
| Tyr - Gly - Gly - Phe - Met - Thr - Ser - Glu - Lys - Ser - Gln - Thr - Pro - Leu - Val - Thr - Leu [β-endorphin] |  |  |  | 0% |
| CC(C)CC(=O)N[C@H](C(=O)N[C@H](C(=O)N[C@@H](CC(C)C)[C@@H](O)CC(=O)N[C@@H](C)C(=O)N[C@@H](CC(C)C)[C@@H](O)CC(=O)O)C(C)C)C(C)C [Pepstatin, pepstatin] (Isovaleryl-VV[Sta]A[Sta]-OH) | not inhibited | - |  |  |
| Ser - Glu - Glu - Pro - Pro - Ile - Ser - Leu - Asp - Leu - Thr - Phe - His - Leu - Leu - Arg - Glu - Val - Leu - Glu - Met - Ala - Arg - Ala - Glu - Gln - Leu - Ala - Gln - Gln - Ala - His - Ser - Asn - Arg - Lys - Leu - Met - Glu - Ile - Ile - NH2 [CRF] |  |  |  | 0% |
